Assay results reported in US6063587A, “Water-soluble tetrazolium salt compounds” (Dojindo Laboratories Co., Ltd., priority 1996, dated 2000).

Experiments:
[1] = background statement; cited from earlier work
[2] = Storage stability test (absorbance of aqueous buffer solution at 460 nm); assay type: physicochemical; settings: 1 mM in 50 mM Tris buffer (pH 8.0), stored at 4° C. for 0, 1, 7, 14, 31 and 90 days
Procedure: 50 mM Tris buffer (pH 8.0) containing 1 mM of Compound a was stored at 4° C. for 0, 1, 7, 14, 31 and 90 days, and absorbances at 460 nm were measured. At the same time, the compound of the above general formula (2) described in Japanese Patent Unexamined Publication No.(Hei) 7-70092/1995 wherein both R^1 and R^2 are nitro groups (Compound b: see, the section of "Background Art") was stored in the same manner, and changes of absorbance were measured.

Compound	water solubility of formazan compound [1]	changes of absorbance at 460 nm on storage [2]
COc1cc(-c2ccc(-n3nc(-c4ccccc4)n[n+]3-c3ccc([N+](=O)[O-])cc3)c(OC)c2)ccc1-n1nc(-c2ccccc2)n[n+]1-c1ccc([N+](=O)[O-])cc1 [nitro-TB, 3,3'-[3,3'-dimethoxy-(1,1'-biphenyl)-4,4'-diyl]-bis[2-(4-nitrophenyl)-5-phenyl]-2H-tetrazolium chloride]	low water solubility	–
O=[N+]([O-])c1ccc(-n2nc(-c3ccc(S(=O)(=O)O)cc3S(=O)(=O)[O-])n[n+]2-c2ccc(I)cc2)c([N+](=O)[O-])c1 [Compound b]	–	remarkable increases of absorbance
